Test results as given in patent US20160207930A1 (LEO PHARMA A/S, priority 2013, published 2016).

Legend:
[1] = Hepatic intrinsic clearance following incubation in human liver microsomes; format: in vitro ADME; conditions: 0.5 μM test compound, NADPH, 0-30 min, scaled to g liver
Outline: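 Compound incubated at 37° C with microsomes diluted to 0.55 mg/mL protein in 50 mM potassium phosphate pH 7.4 plus NADPH regenerating system; sampled 0–30 min and analysed by LC-MS/MS. Clint from ln(% parent remaining) slope, scaled to mL/min/g liver; Eh derived assuming 25.7 g/kg liver, 20.7 mL/min/kg blood flow.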

NK1 Receptor = molecular target: T1, NK1 Receptor (Homo sapiens, UniProt P25103); test: NK1 receptor mediated intracellular [Ca2+] mobilization in U251 MG cells using FLIPR; format: cell-based; conditions: antagonism of Substance P (EC80), Fluo-4, read-out: NK1R mediated intracellular [Ca^2+] mobilization IC 50
T1 construct: Measurement of NK1 Receptor Mediated Intracellular [Ca^2+]; Mobilization in U251 MG Cells Using FLIPR; endogenous in cells; host or cells: U251 MG cells
Outline: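 Fluo-4-loaded U251 MG cells preincubated with compound (0.5% DMSO final), checked 5 min for agonism, then 10 min at 37 °C before Substance P at EC80. Peak fluorescence change on FLIPR, normalized to 100 nM Aprepitant maximal response; IC50 by four-parameter logistic fit, reported as pIC50.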

T1 sequence (P25103 whole entry): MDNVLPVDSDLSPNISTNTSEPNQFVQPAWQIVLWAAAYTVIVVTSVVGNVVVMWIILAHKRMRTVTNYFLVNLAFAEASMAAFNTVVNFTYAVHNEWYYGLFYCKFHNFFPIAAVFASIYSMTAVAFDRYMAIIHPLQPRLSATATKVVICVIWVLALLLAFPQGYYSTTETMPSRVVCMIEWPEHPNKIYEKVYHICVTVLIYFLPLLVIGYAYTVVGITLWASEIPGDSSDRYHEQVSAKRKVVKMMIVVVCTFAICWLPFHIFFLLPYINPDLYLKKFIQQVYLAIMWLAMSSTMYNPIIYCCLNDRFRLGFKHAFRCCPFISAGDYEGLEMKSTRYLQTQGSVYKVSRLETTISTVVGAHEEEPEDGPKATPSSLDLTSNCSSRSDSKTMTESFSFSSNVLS

| Compound | Human in vitro Clint [1] | IC50 (NK1 Receptor) |
| --- | --- | --- |
| Cc1cccc([C@H]2[C@@H]3CC(CCO)(CCO)C(=O)N3CCN2C(=O)N(C)[C@H](C)c2cc(C(F)(F)F)cc(C(F)(F)F)c2)c1C [Compound 39, (1S,8aS)—N—((R)-1-(3,5-bis(trifluoromethyl)phenyl)ethyl)-1-(2,3-dimethylphenyl)-7,7-bis(2-hydroxyethyl)-N-methyl-6-oxohexahydropyrrolo[1,2-a]pyrazine-2(1H)-carboxamide] | >200 mL/min/g | 0.119 nM |
| Cc1cccc([C@H]2[C@@H]3CCC(=O)N3CCN2C(=O)N(C)[C@H](C)c2cc(C(F)(F)F)cc(C(F)(F)F)c2)c1C [Compound 40, (1S,8aS)—N—((R)-1-(3,5-bis(trifluoromethyl)phenyl)ethyl)-1-(2,3-dimethylphenyl)-N-methyl-6-oxo-hexahydropyrrolo[1,2-a]pyrazine-2(1H)-carboxamide] | >200 mL/min/g | 0.197 nM |
| CCc1cc([C@@H](C)N(C)C(=O)N2CCN3C(=O)CC[C@H]3[C@@H]2c2cccc(C)c2C)cc(C(F)(F)F)c1 [Compound 41, (1S,8aS)-1-(2,3-dimethylphenyl)-N—((R)-1-(3-ethyl-5-(trifluoromethyl)phenyl)ethyl)-N-methyl-6-oxo-hexahydropyrrolo[1,2-a]pyrazine-2(1H)-carboxamide] | >200 mL/min/g | 0.111 nM |
| Cc1cccc([C@H]2[C@@H]3CCC(=O)N3CCN2C(=O)N(C)[C@H](C)c2cc(C(C)C)cc(C(F)(F)F)c2)c1C [Compound 42] | >200 mL/min/g | 0.306 nM |
| Cc1cccnc1[C@@H]1[C@@H]2CCC(=O)N2CCN1C(=O)N(C)[C@H](C)c1cc(C(F)(F)F)cc(C(F)(F)F)c1 [Compound 44, (1S,8aS)—N—((R)-1-(3,5-bis(trifluoromethyl)phenyl)ethyl)-N-methyl-1-(3-methylpyridin-2-yl)-6-oxo-hexahydropyrrolo[1,2-a]pyrazine-2(1H)-carboxamide] | >200 mL/min/g | 100 nM |
| Cc1ccncc1[C@H]1[C@@H]2CCC(=O)N2CCN1C(=O)N(C)[C@H](C)c1cc(C(F)(F)F)cc(C(F)(F)F)c1 [Compound 45, (1S,8aS)—N—((R)-1-(3,5-bis(trifluoromethyl)phenyl)ethyl)-N-methyl-1-(4-methylpyridin-3-yl)-6-oxo-hexahydropyrrolo[1,2-a]pyrazine-2(1H)-carboxamide] | <10 mL/min/g | 0.772 nM |
| Cc1cnccc1[C@H]1[C@@H]2CCC(=O)N2CCN1C(=O)N(C)[C@H](C)c1cc(C(F)(F)F)cc(C(F)(F)F)c1 [Compound 46, (1S,8aS)—N—((R)-1-(3,5-bis(trifluoromethyl)phenyl)ethyl)-N-methyl-1-(3-methylpyridin-4-yl)-6-oxohexahydropyrrolo[1,2-a]pyrazine-2(1H)-carboxamide] | <10 mL/min/g | 0.167 nM |
| Cc1cscc1[C@H]1[C@@H]2CCC(=O)N2CCN1C(=O)N(C)[C@H](C)c1cc(C(F)(F)F)cc(C(F)(F)F)c1 [Compound 48] | >200 mL/min/g | 0.249 nM |
| CCc1cc([C@@H](C)N(C)C(=O)N2CCN3C(=O)CC[C@H]3[C@@H]2c2cscc2C)cc(C(F)(F)F)c1 [Compound 49, (1S,8aS)—N—((R)-1-(3-ethyl-5-(trifluoromethyl)phenyl)ethyl)-N-methyl-1-(4-methylthiophen-3-yl)-6-oxohexahydropyrrolo[1,2-a]pyrazine-2(1H)-carboxamide] | >200 mL/min/g | 0.999 nM |
| Cc1ccsc1[C@H]1[C@@H]2CCC(=O)N2CCN1C(=O)N(C)[C@H](C)c1cc(C(F)(F)F)cc(C(F)(F)F)c1 [Compound 50] | >200 mL/min/g | 0.08 nM |
| CCc1cc([C@@H](C)N(C)C(=O)N2CCN3C(=O)CC[C@H]3[C@@H]2c2sccc2C)cc(C(F)(F)F)c1 [Compound 51, (1R,8aS)—N—((R)-1-(3-ethyl-5-(trifluoromethyl)phenyl)ethyl)-N-methyl-1-(3-methylthiophen-2-yl)-6-oxohexahydropyrrolo[1,2-a]pyrazine-2(1H)-carboxamide] | >200 mL/min/g | 0.055 nM |
| Cc1cc([C@@H](C)N(C)C(=O)N2CCN3C(=O)CC[C@H]3[C@@H]2c2sccc2C)cc(C(F)(F)F)c1 [Compound 52, (1R,8aS)—N-methyl-N—((R)-1-(3-methyl-5-(trifluoromethyl)phenyl)ethyl)-1-(3-methylthiophen-2-yl)-6-oxohexahydropyrrolo[1,2-a]pyrazine-2(1H)-carboxamide] | >200 mL/min/g | 0.353 nM |
| C[C@H](c1cc(C(F)(F)F)cc(C(F)(F)F)c1)N(C)C(=O)N1CCN2C(=O)CC[C@H]2[C@@H]1c1cccs1 [Compound 53, (1R,8aS)—N—((R)-1-(3,5-bis(trifluoromethyl)phenyl)ethyl)-N-methyl-6-oxo-1-(thiophen-2-yl)hexahydropyrrolo[1,2-a]pyrazine-2(1H)-carboxamide] | >200 mL/min/g | 0.43 nM |
| CCc1cc([C@@H](C)N(C)C(=O)N2CCN3C(=O)CC[C@H]3[C@@H]2c2cccs2)cc(C(F)(F)F)c1 [Compound 54, (1R,8aS)—N—((R)-1-(3-ethyl-5-(trifluoromethyl)phenyl)ethyl)-N-methyl-6-oxo-1-(thiophen-2-yl)hexahydropyrrolo[1,2-a]pyrazine-2(1H)-carboxamide] | >200 mL/min/g | 0.514 nM |
| Cc1cc([C@@H](C)N(C)C(=O)N2CCN3C(=O)CC[C@H]3[C@@H]2c2ccsc2C)cc(C(F)(F)F)c1 [Compound 55, (1S,8aS)—N-methyl-N—((R)-1-(3-methyl-5-(trifluoromethyl)phenyl)ethyl)-1-(2-methylthiophen-3-yl)-6-oxohexahydropyrrolo[1,2-a]pyrazine-2(1H)-carboxamide] | >200 mL/min/g | 1.58 nM |
| CCc1cc([C@@H](C)N(C)C(=O)N2CCN3C(=O)CC[C@H]3[C@@H]2c2ccsc2C)cc(C(F)(F)F)c1 [Compound 56, (1S,8aS)—N—((R)-1-(3-ethyl-5-(trifluoromethyl)phenyl)ethyl)-N-methyl-1-(2-methylthiophen-3-yl)-6-oxohexahydropyrrolo[1,2-a]pyrazine-2(1H)-carboxamide] | >200 mL/min/g | 1.51 nM |
| Cc1sccc1[C@H]1[C@@H]2CCC(=O)N2CCN1C(=O)N(C)[C@H](C)c1cc(C(F)(F)F)cc(C(F)(F)F)c1 [Compound 57, (1S,8aS)—N—((R)-1-(3,5-bis(trifluoromethyl)phenyl)ethyl)-N-methyl-1-(2-methylthiophen-3-yl)-6-oxohexahydropyrrolo[1,2-a]pyrazine-2(1H)-carboxamide] | >200 mL/min/g | 0.152 nM |
| Cc1ncc([C@H]2[C@@H]3CCC(=O)N3CCN2C(=O)N(C)[C@H](C)c2cc(C(F)(F)F)cc(C(F)(F)F)c2)s1 [Compound 58, (1R,8aS)—N—((R)-1-(3,5-bis(trifluoromethyl)phenyl)ethyl)-N-methyl-1-(2-methylthiazol-5-yl)-6-oxohexahydropyrrolo[1,2-a]pyrazine-2(1H)-carboxamide] | >200 mL/min/g | 28.6 nM |
| C[C@H](c1cc(C(F)(F)F)cc(C(F)(F)F)c1)N(C)C(=O)N1CCN2C(=O)CC[C@H]2[C@@H]1c1cncs1 [Compound 59, (1R,8aS)—N—((R)-1-(3,5-bis(trifluoromethyl)phenyl)ethyl)-N-methyl-6-oxo-1-(thiazol-5-yl)-hexahydropyrrolo[1,2-a]pyrazine-2(1H)-carboxamide] | >200 mL/min/g | 29.4 nM |
| CCc1cc([C@@H](C)N(C)C(=O)N2CCN3C(=O)CC[C@H]3[C@@H]2c2c[nH]nc2C)cc(C(F)(F)F)c1 [Compound 61, (1S,8aS)—N—((R)-1-(3-ethyl-5-(trifluoromethyl)phenyl)ethyl)-N-methyl-1-(3-methyl-1H-pyrazol-4-yl)-6-oxohexahydropyrrolo[1,2-a]pyrazine-2(1H)-carboxamide] | >200 mL/min/g | 59 nM |
| CCc1cc([C@@H](C)N(C)C(=O)N2CCN3C(=O)C(CCO)(CCO)C[C@H]3[C@@H]2c2c[nH]nc2C)cc(C(F)(F)F)c1 [Compound 62, (1S,8aS)—N—((R)-1-(3-ethyl-5-(trifluoromethyl)phenyl)ethyl)-7,7-bis(2-hydroxyethyl)-N-methyl-1-(3-methyl-1H-pyrazol-4-yl)-6-oxohexahydropyrrolo[1,2-a]pyrazine-2(1H)-carboxamide] | 115 mL/min/g | 1.07 nM |
| Cc1cc([C@@H](C)N(C)C(=O)N2CCN3C(=O)C(CCO)(CCO)C[C@H]3[C@@H]2c2c[nH]nc2C)cc(C(F)(F)F)c1 [Compound 63, (1S,8aS)-7,7-bis(2-hydroxyethyl)-N-methyl-1-(3-methyl-1H-pyrazol-4-yl)-N—((R)-1-(3-methyl-5-(trifluoromethyl)phenyl)ethyl)-6-oxo-hexahydropyrrolo[1,2-a]pyrazine-2(1H)-carboxamide] | 51 mL/min/g | 9.29 nM |
| Cc1nn(C)cc1[C@H]1[C@@H]2CCC(=O)N2CCN1C(=O)N(C)[C@H](C)c1cc(C(F)(F)F)cc(C(F)(F)F)c1 [Compound 64, (1S,8aS)—N—((R)-1-(3,5-bis(trifluoromethyl)phenyl)ethyl)-1-(1,3-dimethyl-1H-pyrazol-4-yl)-N-methyl-6-oxohexahydropyrrolo[1,2-a]pyrazine-2(1H)-carboxamide] | 67 mL/min/g | 1.23 nM |
